Laboratory results taken from patent publication US20230053540A1, “TREATMENT OF LIVER INJURY” (Massachusetts Institute of Technology, priority 2019, published 2023).

System: hepatocytes
Assay: Seq-Well scRNA-Seq of hepatocytes after APAP overdose (signature scores, DEG vs untreated)
Type: in vivo, mouse
[1] = cluster A96, DEG between treatment (APAP and PH)
[2] = fraction of A96 (APAP, 96 h) hepatocytes expressing the gene
[3] = hepatocyte cluster A96 (APAP, 96 h) vs all other clusters

SMILES: CC(=O)Nc1ccc(O)cc1 [APAP, acetaminophen]
- avg_logFC, gene Decr2 [1]: 0.3018
- avg_logFC, gene Dhdh [1]: 0.2626
- avg_logFC, gene Etfdh [1]: 0.2639
- avg_logFC, gene Etnppl [1]: 0.3154
- avg_logFC, gene F5 [1]: 0.2566
- avg_logFC, gene Fmo1 [1]: 0.265
- avg_logFC, gene G0s2 [1]: 0.2656
- avg_logFC, gene G6pc [1]: 0.2541
- avg_logFC, gene Gabarapl1 [1]: 0.2932
- avg_logFC, gene Gadd45b [1]: 0.2598
- avg_logFC, gene Gas5 [1]: 0.2823
- avg_logFC, gene Gm4952 [1]: 0.2581
- avg_logFC, gene Gsta2 [1]: 0.311
- avg_logFC, gene Gstt3 [1]: 0.3026
- avg_logFC, gene Gyk [1]: 0.3134
- avg_logFC, gene Hmgcl [1]: 0.2744
- avg_logFC, gene Hmgcs1 [1]: 0.3251
- avg_logFC, gene Hpgd [1]: 0.3412
- avg_logFC, gene Hsd17b7 [1]: 0.3028
- avg_logFC, gene Hsd17b10 [1]: 0.2802
- avg_logFC, gene Igfbp1 [1]: 0.2603
- avg_logFC, gene Kif1b [1]: 0.2961
- avg_logFC, gene Lcat [1]: 0.2616
- avg_logFC, gene Mia3 [1]: 0.2604
- avg_logFC, gene Ndufa3 [1]: 0.2743
- avg_logFC, gene Ndufa7 [1]: 0.26
- avg_logFC, gene Nr1i3 [1]: 0.3481
- avg_logFC, gene Oat [1]: 0.4904
- avg_logFC, gene Pon1 [1]: 0.2899
- avg_logFC, gene Por [1]: 0.2867
- avg_logFC, gene Ppp1r3b [1]: 0.251
- avg_logFC, gene Ppp2r5a [1]: 0.3505
- avg_logFC, gene Ptms [1]: 0.2863
- avg_logFC, gene Pxmp4 [1]: 0.2555
- avg_logFC, gene Rdh16 [1]: 0.3477
- avg_logFC, gene Rdx [1]: 0.2566
- avg_logFC, gene Rgn [1]: 0.3686
- avg_logFC, gene Sc4mol [1]: 0.3361
- avg_logFC, gene Slc4a4 [1]: 0.2977
- avg_logFC, gene Slc25a20 [1]: 0.2507
- avg_logFC, gene Slco1a4 [1]: 0.3049
- avg_logFC, gene Snord118 [1]: 0.3782
- avg_logFC, gene Tgoln1 [1]: 0.2809
- avg_logFC, gene Tmed5 [1]: 0.2523
- avg_logFC, gene Tobi [1]: 0.2958
- avg_logFC, gene Tsc22d3 [1]: 0.3363
- avg_logFC, gene Zfp36l1 [1]: 0.2964
- avg_logFC, gene Zfp91 [1]: 0.2775
- pct.1 8430408G22Rik [2]: 0.559
- pct.1 Acot12 [2]: 0.65
- pct.1 Agpat6 [2]: 0.743
- pct.1 Aplp2 [2]: 0.826
- pct.1 Apoc2 [2]: 0.901
- pct.1 Apol7a [2]: 0.559
- pct.1 Aqp9 [2]: 0.801
- pct.1 Arl4a [2]: 0.517
- pct.1 Brap [2]: 0.642
- pct.1 Cd36 [2]: 0.299
- pct.1 Cebpb [2]: 0.585
- pct.1 Cede107 [2]: 0.59
- pct.1 Ces1e [2]: 0.71
- pct.1 Ces1f [2]: 0.895
- pct.1 Cisd1 [2]: 0.781
- pct.1 Cpeb4 [2]: 0.527
- pct.1 Cpox [2]: 0.634
- pct.1 Cxcl12 [2]: 0.635
- pct.1 D4Wsu53e [2]: 0.597
- pct.1 D17Wsu92e [2]: 0.771
- pct.1 Dcxr [2]: 0.735
- pct.1 Dhdh [2]: 0.734
- pct.1 Ech1 [2]: 0.917
- pct.1 Ehhadh [2]: 0.78
- pct.1 Ephx1 [2]: 0.879
- pct.1 Etfdh [2]: 0.811
- pct.1 Etnppl [2]: 0.677
- pct.1 Fmo1 [2]: 0.606
- pct.1 Gclm [2]: 0.865
- pct.1 Hamp2 [2]: 0.203
- pct.1 Hsd17b7 [2]: 0.56
- pct.1 Lcat [2]: 0.886
- pct.1 Mocs2 [2]: 0.737
- pct.1 Mtdh [2]: 0.649
- pct.1 Ndufa3 [2]: 0.737
- pct.1 Ndufb2 [2]: 0.731
- pct.1 Nfe2l2 [2]: 0.465
- pct.1 Oat [2]: 0.653
- pct.1 Pabpc1 [2]: 0.766
- pct.1 Pdk1 [2]: 0.438
- pct.1 Prkd3 [2]: 0.682
- pct.1 Ptp4a2 [2]: 0.691
- pct.1 Rgn [2]: 0.899
- pct.1 Sdhc [2]: 0.76
- pct.1 Sdhd [2]: 0.775
- pct.1 Slc4a4 [2]: 0.609
- pct.1 Slc25a10 [2]: 0.701
- pct.1 Tgoln1 [2]: 0.756
- pct.1 Tmed5 [2]: 0.714
- pct.1 Tmem106b [2]: 0.727
- pct.1 Tob1 [2]: 0.649
- pct.1 Tsc22d3 [2]: 0.534
- pct.1 Usmg5 [2]: 0.59
- pct.1 Zfp91 [2]: 0.693
- pct.1 Atp2a2 (gene Atp2a2, time point A96): 0.64
- avg_logFC Atp2a2 (gene Atp2a2, time point A96 vs untreated (UT)): 0.2537
- pct.1 Csad (gene Csad, time point A96): 0.843
- avg_logFC Csad (gene Csad, time point A96 vs untreated (UT)): 0.2906
- pct.1 Eef1b2 (gene Eef1b2, time point A96): 0.743
- avg_logFC Eef1b2 (gene Eef1b2, time point A96 vs untreated (UT)): −0.2686
- pct.1 Etnppl (gene Etnppl, time point A96): 0.677
- avg_logFC Etnppl (gene Etnppl, time point A96 vs untreated (UT)): 0.407
- pct.1 Fos (gene Fos, time point A96): 0.619
- avg_logFC Fos (gene Fos, time point A96 vs untreated (UT)): 0.3272
- pct.1 Ftl1 (gene Ftl1, time point A96): 0.363
- avg_logFC Ftl1 (gene Ftl1, time point A96 vs untreated (UT)): −0.2798
- pct.1 Gm20594 (gene Gm20594, time point A96): 0.262
- avg_logFC Gm20594 (gene Gm20594, time point A96 vs untreated (UT)): −0.2928
- pct.1 Hes6 (gene Hes6, time point A96): 0.33
- avg_logFC Hes6 (gene Hes6, time point A96 vs untreated (UT)): −0.2781
- pct.1 Hsd3b3 (gene Hsd3b3, time point A96): 0.499
- avg_logFC Hsd3b3 (gene Hsd3b3, time point A96 vs untreated (UT)): −0.313
- pct.1 Hsd17b2 (gene Hsd17b2, time point A96): 0.614
- avg_logFC Hsd17b2 (gene Hsd17b2, time point A96 vs untreated (UT)): −0.3005
- pct.1 Hsd17b13 (gene Hsd17b13, time point A96): 0.755
- avg_logFC Hsd17b13 (gene Hsd17b13, time point A96 vs untreated (UT)): 0.2678
- pct.1 Ifi27 (gene Ifi27, time point A96): 0.325
- avg_logFC Ifi27 (gene Ifi27, time point A96 vs untreated (UT)): −0.2572
- pct.1 Ifitm3 (gene Ifitm3, time point A96): 0.742
- avg_logFC Ifitm3 (gene Ifitm3, time point A96 vs untreated (UT)): −0.2797
- pct.1 Krt8 (gene Krt8, time point A96): 0.47
- avg_logFC Krt8 (gene Krt8, time point A96 vs untreated (UT)): −0.265
- pct.1 Malat1 (gene Malat1, time point A96): 0.702
- avg_logFC Malat1 (gene Malat1, time point A96 vs untreated (UT)): −0.4647
- pct.1 Mup2 (gene Mup2, time point A96): 0.256
- avg_logFC Mup2 (gene Mup2, time point A96 vs untreated (UT)): −0.5008
- pct.1 Mup4 (gene Mup4, time point A96): 0.824
- avg_logFC Mup4 (gene Mup4, time point A96 vs untreated (UT)): −0.6934
- pct.1 Naa50 (gene Naa50, time point A96): 0.517
- avg_logFC Naa50 (gene Naa50, time point A96 vs untreated (UT)): 0.2658
- pct.1 Ndufb11 (gene Ndufb11, time point A96): 0.669
- avg_logFC Ndufb11 (gene Ndufb11, time point A96 vs untreated (UT)): −0.2832
- pct.1 Nme1 (gene Nme1, time point A96): 0.561
- avg_logFC Nme1 (gene Nme1, time point A96 vs untreated (UT)): −0.2724
- pct.1 Oat (gene Oat, time point A96): 0.653
- avg_logFC Oat (gene Oat, time point A96 vs untreated (UT)): 0.3439
- pct.1 Pnpla7 (gene Pnpla7, time point A96): 0.455
- avg_logFC Pnpla7 (gene Pnpla7, time point A96 vs untreated (UT)): −0.3397
- pct.1 Prdx4 (gene Prdx4, time point A96): 0.517
- avg_logFC Prdx4 (gene Prdx4, time point A96 vs untreated (UT)): −0.314
- pct.1 Psmb1 (gene Psmb1, time point A96): 0.703
- avg_logFC Psmb1 (gene Psmb1, time point A96 vs untreated (UT)): −0.2659
- pct.1 Psmb5 (gene Psmb5, time point A96): 0.241
- avg_logFC Psmb5 (gene Psmb5, time point A96 vs untreated (UT)): −0.2633
- pct.1 Rarres1 (gene Rarres1, time point A96): 0.274
- avg_logFC Rarres1 (gene Rarres1, time point A96 vs untreated (UT)): −0.2874
- pct.1 Rgn (gene Rgn, time point A96): 0.899
- avg_logFC Rgn (gene Rgn, time point A96 vs untreated (UT)): 0.2614
- pct.1 Rpl32 (gene Rpl32, time point A96): 0.689
- avg_logFC Rpl32 (gene Rpl32, time point A96 vs untreated (UT)): −0.2631
- pct.1 Rpl41 (gene Rpl41, time point A96): 0.274
- avg_logFC Rpl41 (gene Rpl41, time point A96 vs untreated (UT)): −0.2575
- pct.1 Rps8 (gene Rps8, time point A96): 0.378
- avg_logFC Rps8 (gene Rps8, time point A96 vs untreated (UT)): −0.2585
- pct.1 Rps15 (gene Rps15, time point A96): 0.468
- avg_logFC Rps15 (gene Rps15, time point A96 vs untreated (UT)): −0.2545
- pct.1 Selk (gene Selk, time point A96): 0.393
- avg_logFC Selk (gene Selk, time point A96 vs untreated (UT)): −0.2647
- pct.1 Serp1 (gene Serp1, time point A96): 0.671
- avg_logFC Serp1 (gene Serp1, time point A96 vs untreated (UT)): −0.2992
- pct.1 Ubb (gene Ubb, time point A96): 0.379
- avg_logFC Ubb (gene Ubb, time point A96 vs untreated (UT)): −0.2685
- pct.1 mmu-mir-6236 (gene mmu-mir-6236, time point A96): 0.801
- avg_logFC mmu-mir-6236 (gene mmu-mir-6236, time point A96 vs untreated (UT)): −0.6272
- pct.1 mt-Atp6 (gene mt-Atp6, time point A96): 0.43
- avg_logFC mt-Atp6 (gene mt-Atp6, time point A96 vs untreated (UT)): −0.3955
- avg_logFC 8430408G22Rik [3]: 0.2774
- avg_logFC Acot12 [3]: 0.2802
- avg_logFC Agpat6 [3]: 0.2753
- avg_logFC Aplp2 [3]: 0.2569
- avg_logFC Apoc2 [3]: 0.2872
- avg_logFC Apol7a [3]: 0.3029
- avg_logFC Aqp9 [3]: 0.2901
- avg_logFC Arl4a [3]: 0.2934
- avg_logFC Brap [3]: 0.2572
- avg_logFC Cd36 [3]: 0.2782
- avg_logFC Cebpb [3]: 0.2515
- avg_logFC Cede107 [3]: 0.2626
- avg_logFC Ces1e [3]: 0.3109
- avg_logFC Ces1f [3]: 0.2782
- avg_logFC Cisd1 [3]: 0.282
- avg_logFC Cpeb4 [3]: 0.2994
- avg_logFC Cpox [3]: 0.2562
- avg_logFC Crls1 [3]: 0.255
- avg_logFC Cxcl12 [3]: 0.3005
- avg_logFC D4Wsu53e [3]: 0.2925
- avg_logFC D17Wsu92e [3]: 0.258
- avg_logFC Dcxr [3]: 0.2522
- avg_logFC Dhdh [3]: 0.2593
- avg_logFC Ech1 [3]: 0.2509
- avg_logFC Ehhadh [3]: 0.2545
- avg_logFC Ephx1 [3]: 0.252
- avg_logFC Etfdh [3]: 0.2768
- avg_logFC Etnppl [3]: 0.411
